Like-named read-outs stand apart in the source and are kept apart here.

The values that follow come from patent US11028090B2 (Dong Wha Pharm. Co., Ltd., priority 2017, dated 2021).

The test system of test [1] is acute myelogenous leukemia cells (MV-4-11 cells). The test can be described thus: Cytotoxicity to acute myelogenous leukemia cells (MV-4-11 cells), CCK-8. The following applies: Homo sapiens, MV4-11, 72 h.
For test [2], the target named is BRD4 (BD1+BD2) bromodomain (Homo sapiens (Human), UniProt O60885). The test can be described thus: BRD4 binding inhibition (AlphaScreen, GST-BRD4 vs tetraacetylated histone H4 peptide). The gist of the method:
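GST-BRD4 (BD1+BD2) and biotinylated tetraacetyl-histone H4 peptide, each at 100 nM in HEPES pH 7.4 buffer with BSA and DTT, were combined with compound. Glutathione acceptor and streptavidin donor beads were added, then incubated 30 min at room temperature in the dark. Read-out was AlphaScreen signal.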
In general terms: Alpha assays give light when donor and acceptor beads are brought close together.

[3] abbreviates: read-out: MV-4-11 Cytotoxicity IC50.
The mark [4] stands for this setting: GST-BRD4 (BD1+BD2) / biotinylated acetyl-histone H4 (Lys5,8,12,16) peptide, read-out: IC50, BRD4 binding inhibition.
Where [5] appears, read: GST-BRD4 (BD1+BD2) vs biotinylated acetyl-histone H4 peptide, AlphaScreen, read-out: BRD4 IC50.
The mark [6] stands for this setting: read-out: IC50, cytotoxicity against acute myelogenous leukemia cells.

Take `COCCOc1ccc2c(c1)nc(NCCCCNC(=O)NC(C)C)c1nnc(C)n12` [Example 422, 1-isopropyl-3-{4-[7-(2-methoxy-ethoxy)-1-methyl-[1,2,4]triazolo[4,3-a]quinoxaline-4-ylamino]-butyl}-urea]: the IC50 – broadly, the point on the concentration scale where inhibition reaches its midpoint – in test [1] (setting [3]) was 450 nM; in test [2] (setting [4]) it was no more than 10 nM; in test [2] (setting [5]) it was 3 nM.

With `CCc1nnc2c(NCCCCNC(=O)OC(C)C)nc3cc(OC)c(OC)cc3n12` [Example 596, [4-(1-ethyl-7,8-dimethoxy-[1,2,4]triazolo[4,3-a]quinoxaline-4-ylamino)-butyl]-carbamic acid isopropylester], the IC50 was 510 nM in test [1] (setting [3]), no more than 50 nM in test [2] (setting [4]) and 19 nM in test [2] (setting [5]).

With `CCOc1cc2nc(NCCCCNC(=O)OC(C)C)c3nnc(C)n3c2cc1OCC` [Example 175, [4-(7,8-diethoxy-1-methyl-[1,2,4]triazolo[4,3-a]quinoxaline-4-ylamino)-butyl]-carbamic acid isopropylester], the IC50 is 260 nM in test [1] (setting [3]), no more than 50 nM in test [2] (setting [4]) and 26 nM in test [2] (setting [5]).

On to `CCc1nnc2c(NCCCCNC(=O)OC(C)C)nc3cc(OC)ccc3n12` [Example 623, [4-(7-methoxy-1-ethyl-[1,2,4]triazolo[4,3-a]quinoxaline-4-ylamino)-butyl]-carbamic acid isopropylester], for which the figures for the IC50 in test [1] (setting [3]), in test [2] (setting [4]) and in test [2] (setting [5]) were 400 nM, no more than 50 nM and 5 nM, respectively.

On to `COc1cc2c(cc1C)nc(NCCCCNC(=O)[C@@H](O)C(C)C)c1nnc(C)n12` [Example 153, 2-(S)-hydroxy-N-[4-(8-methoxy-1,7-dimethyl-[1,2,4]triazolo[4,3-a]quinoxaline-4-ylamino)-butyl]-3-methyl-butyramide], for which the figures for the IC50 in test [1] (setting [3]), in test [2] (setting [4]) and in test [2] (setting [5]) were 460 nM, no more than 50 nM and 16 nM, respectively.

As for `COCCOc1ccc2c(c1)nc(NCCCCNC(=O)Cc1ccccc1)c1nnc(C)n12` [Example 420, N-{4-[7-(2-methoxy-ethoxy)-1-methyl-[1,2,4]triazolo[4,3-a]quinoxaline-4-ylamino]-butyl}-2-phenyl-acetamide], the IC50 in test [1] (setting [6]) is no more than 200 nM; in test [1] (setting [3]) it was 180 nM; in test [2] (setting [4]), no more than 10 nM; in test [2] (setting [5]), 2 nM.

With `COc1ccc2c(c1)nc(NCCCCNC(=O)[C@@H](NC(=O)OCC(C)C)C(C)C)c1nnc(C)n12` [Example 318, (S)-{1-[4-(7-methoxy-1-methyl-[1,2,4]triazolo[4,3-a]quinoxaline-4-ylamino)-butylcarbamoyl]-2-methyl-propyl}-carbamic acid isobutylester], the IC50 in test [1] (setting [6]) was no more than 200 nM; in test [1] (setting [3]), 32 nM; in test [2] (setting [4]) it was no more than 10 nM; in test [2] (setting [5]), 10 nM.

As for `Cc1nnc2c(NCCCCNC(=O)c3ccccc3Cl)nc3cc4c(cc3n12)OCCO4` [Example 187, 2-chloro-N-[4-(1-methyl-8,9-dihydro-7,10-dioxa-2,3,5,11b-tetraaza-cyclopenta[a]anthracene-4-ylamino)-butyl]-benzamide], the concentration for half-maximal inhibition (IC50) in test [1] (setting [6]) is no more than 200 nM; in test [1] (setting [3]), 110 nM; in test [2] (setting [4]) it was no more than 50 nM; in test [2] (setting [5]), 24 nM.

As for `COc1cc2nc(NCCCCNC(=O)CC(C)C)c3nnc(C)n3c2cc1N` [Example 556, N-[4-(8-amino-7-methoxy-1-methyl-[1,2,4]triazolo[4,3-a]quinoxaline-4-ylamino)-butyl]-3-methyl-butyramide], the IC50 in test [1] (setting [6]) was no more than 200 nM; in test [1] (setting [3]) it was 1 nM; in test [2] (setting [4]), no more than 50 nM; in test [2] (setting [5]) it was 31 nM.

Take `COCCOc1ccc2c(c1)nc(NCCCCNC(=O)Cc1cccs1)c1nnc(C)n12` [Example 406, N-{4-[7-(2-methoxy-ethoxy)-1-methyl-[1,2,4]triazolo[4,3-a]quinoxaline-4-ylamino]-butyl}-2-thiophene-2-yl-acetamide]: the IC50 is no more than 200 nM in test [1] (setting [6]), 19 nM in test [1] (setting [3]), no more than 50 nM in test [2] (setting [4]) and 14 nM in test [2] (setting [5]).

Take `Cc1nnc2c(NCCCCNC(=O)CC(C)C)nc3cc(NS(C)(=O)=O)ccc3n12` [Example 257, N-[4-(7-methanesulfonylamino-1-methyl-[1,2,4]triazolo[4,3-a]quinoxaline-4-ylamino)-butyl]-3-methyl-butyramide]: the IC50 in test [1] (setting [3]) is 327 nM; in test [2] (setting [4]) it was no more than 10 nM; in test [2] (setting [5]) it was 8 nM.

In the case of `COCCOc1ccc2c(c1)nc(NCCCCNC(=O)c1ccccc1F)c1nnc(C)n12` [Example 409, 2-fluoro-N-{4-[7-(2-methoxy-ethoxy)-1-methyl-[1,2,4]triazolo[4,3-a]quinoxaline-4-ylamino]-butyl}-benzamide], the IC50 in test [1] (setting [3]) is 380 nM; in test [2] (setting [4]), no more than 10 nM; in test [2] (setting [5]) it was 9 nM.

As for `COCCOc1cc2nc(NCCCCNC(=O)c3ccc(C)nc3Cl)c3nnc(C)n3c2cc1OCCOC` [Example 172, N-{4-[7,8-bis-(2-methoxy-ethoxy)-1-methyl-[1,2,4]triazolo[4,3-a]quinoxaline-4-ylamino]-butyl}-2-chloro-6-methyl-nicotinamide], the half-maximal inhibitory concentration (IC50) was 280 nM in test [1] (setting [3]), no more than 50 nM in test [2] (setting [4]) and 40 nM in test [2] (setting [5]).

For `Cc1nnc2c(NCCCCN)nc3cc4c(cc3n12)OCCO4` [Example 179, N^1-(1-methyl-8,9-dihydro-7,10-dioxa-2,3,5,11b-tetraaza-cyclopenta[a]anthracene-4-yl)-butane-1,4-diamine ditrifluoroacetic acid], the IC50 in test [1] (setting [3]) was 640 nM; in test [2] (setting [4]), no more than 50 nM; in test [2] (setting [5]), 35 nM.

For `Cc1nnc2c(NCCCCNC(=O)CC(C)C)nc3cc(-c4nc5ccccc5n4C)ccc3n12` [Example 222, 3-methyl-N-{4-[1-methyl-7-(1-methyl-1H-benzoimidazole-2-yl)-[1,2,4]triazolo[4,3-a]quinoxaline-4-ylamino]-butyl}-butyramide], the IC50 in test [1] (setting [6]) was no more than 200 nM; in test [1] (setting [3]) it was 53 nM; in test [2] (setting [4]), no more than 10 nM; in test [2] (setting [5]), 1 nM.

For the molecule `COc1ccc2c(c1)nc(NCCCCNC(=O)Cc1ccccc1)c1nnc(C)n12` [Example 329, N-[4-(7-methoxy-1-methyl-[1,2,4]triazolo[4,3-a]quinoxaline-4-ylamino)-butyl]-2-phenyl-acetamide], the IC50 in test [1] (setting [6]) was no more than 200 nM; in test [1] (setting [3]), 19 nM; in test [2] (setting [4]), no more than 50 nM; in test [2] (setting [5]), 35 nM.

Turning to `COCCOc1ccc2c(c1)nc(NCCCCNC(=O)OC(C)C)c1nnc(C)n12` [Example 366, {4-[7-(2-methoxy-ethoxy)-1-methyl-[1,2,4]triazolo[4,3-a]quinoxaline-4-ylamino]-butyl}-carbamic acid isopropylester], the IC50 is no more than 200 nM in test [1] (setting [6]), 110 nM in test [1] (setting [3]), no more than 50 nM in test [2] (setting [4]) and 16 nM in test [2] (setting [5]).

Take `Cc1nnc2c(NCCCCNC(=O)Cc3cccs3)nc3cc(OC(C)C)ccc3n12` [Example 451, N-[4-(7-isopropoxy-1-methyl-[1,2,4]triazolo[4,3-a]quinoxaline-4-ylamino)-butyl]-2-thiophene-2-yl-acetamide]: the IC50 in test [1] (setting [6]) was no more than 200 nM; in test [1] (setting [3]), 24 nM; in test [2] (setting [4]) it was no more than 50 nM; in test [2] (setting [5]) it was 13 nM.

As for `COc1ccc2c(c1)nc(NCCCCNC(=O)CCC1CCCC1)c1nnc(C)n12` [Example 309, 3-cyclopentyl-N-[4-(7-methoxy-1-methyl-[1,2,4]triazolo[4,3-a]quinoxaline-4-ylamino)-butyl]-propionamide], the IC50 is no more than 200 nM in test [1] (setting [6]), 110 nM in test [1] (setting [3]) and no more than 10 nM in test [2] (setting [4]).

`COCCOc1ccc2c(c1)nc(NCCCCNC(=O)OCC(C)C)c1nnc(C)n12` [Example 369, {4-[7-(2-methoxy-ethoxy)-1-methyl-[1,2,4]triazolo[4,3-a]quinoxaline-4-ylamino]-butyl}-carbamic acid isobutylester]: the IC50 is no more than 200 nM in test [1] (setting [6]), 130 nM in test [1] (setting [3]), no more than 50 nM in test [2] (setting [4]) and 14 nM in test [2] (setting [5]).

Take `COc1cc2nc(NCCCCNC(=O)Cc3ccco3)c3nnc(C)n3c2cc1OC` [Example 85, N-[4-(7,8-dimethoxy-1-methyl-[1,2,4]triazolo[4,3-a]quinoxaline-4-ylamino)-butyl]-2-furan-2-yl-acetamide]: the IC50 was no more than 200 nM in test [1] (setting [6]), 50 nM in test [1] (setting [3]), no more than 50 nM in test [2] (setting [4]) and 27 nM in test [2] (setting [5]).

For the molecule `COc1ccc2c(c1)nc(NCCCCNC(=O)[C@@H](NC(=O)OC(C)C)C(C)C)c1nnc(C)n12` [Example 320, (S)-{1-[4-(7-methoxy-1-methyl-[1,2,4]triazolo[4,3-a]quinoxaline-4-ylamino)-butylcarbamoyl]-2-methyl-propyl}-carbamic acid isopropylester], the IC50 in test [1] (setting [3]) was 670 nM; in test [2] (setting [4]), no more than 10 nM; in test [2] (setting [5]), 4 nM.

Take `Cc1nnc2c(NCCCCNC(=O)CC(C)C)nc3cc(OCc4ccc(C#N)cc4)ccc3n12` [Example 341, N-{4-[7-(4-cyano-benzyloxy)-1-methyl-[1,2,4]triazolo[4,3-a]quinoxaline-4-ylamino]-butyl}-3-methyl-butyramide]: the half-maximal inhibitory concentration (IC50) in test [1] (setting [6]) is no more than 200 nM; in test [1] (setting [3]), 52 nM; in test [2] (setting [5]), 71 nM.

Turning to `Cc1nnc2c(NCCCCNC(=O)[C@@H](O)C(C)C)nc3ccccc3n12` [Example 10, 2-(S)-hydroxy-N-[4-(1-methyl-[1,2,4]triazolo[4,3-a]quinoxaline-4-ylamino)-butyl]-3-methyl-butyramide], the concentration for half-maximal inhibition (IC50) in test [1] (setting [3]) was 160 nM; in test [2] (setting [4]), no more than 10 nM; in test [2] (setting [5]), 5 nM.
